Tests used:
[1] = Clinical observation: topical application, itching and erythema (flushing); assay type: in vivo, human; details: for itching and erythema of skin: 1% in water solution, 4×2 inch patch on inside forearm, one subject
Protocol: BHB acts on the same pathway that causes flushing in individuals who take high doses of niacin. A topical formulation containing BHB was evaluated to see if it induced itching and erythema. The BHB formulation was compared to a topical niacin formulation.
A 1% BHB in water solution was made and a 1% niacin in water solution was made. Unknown to the subject, the BHB formula was applied in a 4×2 inch patch on the inside left forearm and the niacin formula was applied in a 4×2 in patch on the inside right forearm. The skin was evaluated over a period of time.

[2] = emulsions with more than about 6-7% salt (about 2% elemental strontium)
nociceptor = details: cited from earlier work
MMP = experiment: Preliminary data in atopic dermatitis: MMP
TCN [3] = experiment: Burning pain from acidic chemical peel (70% glycolic acid) mixed with strontium; assay type: in vivo; details: strontium mixed with 70% glycolic acid, pH 0.6
Protocol: Nociceptors also have a CaSR that inhibits nociceptor activation when the extracellular concentration of calcium is raised above normal, or if a similar concentration of strontium is administered. […] When strontium is mixed with the acid, burning pain and stinging is suppressed by 80% or more so that any remaining sensory irritation is not bothersome.

[4] = Preliminary investigations: pain of post herpetic neuralgia; assay type: in vivo
[5] = Topical application to skin for pain, itch, irritation; assay type: in vivo; details: simple solutions of strontium and water, no penetration enhancer
Source text: Without wishing to be bound by any one theory, it is believed that opening ion channels in the presence of strontium, allows greater levels of strontium to enter the nociceptor and shut down or decrease its activity. This is due to (1) strontium having a higher affinity than calcium for flowing into the ion channels and (2) the excessive amount of strontium ions present as compared to the physiological levels of calcium present. Furthermore, cysteine based antioxidants and strontium target different mechanisms to block nociception. The combination results in a synergistic affect
Most skin products are “pH balanced” to help maintain a healthy skin pH. […] While not wishing to be bound by any one theory, it is believed that the application of a low pH formulation on the skin activates acid sensitive ion channels such as ASIC and TRPV1 resulting in the opening of ion channels on the nociceptor. The opening of the ion channels in the presence of strontium allows greater levels of strontium to enter the nociceptor and shut down or decrease it activity. This is due to (1) strontium having a higher affinity than calcium for flowing into the ion channels and (2) the excessive amount of strontium ions present as compared to the physiological levels of calcium present. […]

TLR-4 = TLR-4 (Homo sapiens, UniProt O00206); experiment: Preliminary data in atopic dermatitis: TLR-4
HSV1 = experiment: Preliminary investigations: symptoms of HSV1; assay type: in vivo
Source text: Without wishing to be bound by any one theory, it is believed that strontium's ability to block NF-Kappa B contributes to minimizing the symptoms associated with an active infection. As mentioned above, HSV 1 and 2 require the activation of NF-Kappa B for de novo virus synthesis. By blocking NF-Kappa B, strontium is essentially stopping the infection at an early stage.

IL-17 = molecular target: T1, IL-17 (Homo sapiens, UniProt Q16552); experiment: Preliminary investigations in psoriasis: IL-17
T1 sequence (Q16552 24-155): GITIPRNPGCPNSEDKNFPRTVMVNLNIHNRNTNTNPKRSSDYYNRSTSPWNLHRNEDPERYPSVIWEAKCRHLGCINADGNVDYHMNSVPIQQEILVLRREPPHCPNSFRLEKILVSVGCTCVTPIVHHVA
Source text: (§1) Preliminary investigations indicate that strontium can break up the inflammatory/keratinocyte cycle of psoriasis, specifically by blocking the IL-17 and TNF-alpha. By targeting and blocking the two main pathways that activated dendritic cells use to trigger a psoriatic episode, strontium has immense potential as a therapeutic for psoriasis.

TNF-alpha = TNF-alpha (Homo sapiens, UniProt P01375); experiment: Preliminary investigations in psoriasis: TNF-alpha
Source text: as §1

TCN [6] = details: strontium substitutes for calcium; cited from earlier work

Chain of TNF-alpha (P01375 77-233 limits assumed, species assumed): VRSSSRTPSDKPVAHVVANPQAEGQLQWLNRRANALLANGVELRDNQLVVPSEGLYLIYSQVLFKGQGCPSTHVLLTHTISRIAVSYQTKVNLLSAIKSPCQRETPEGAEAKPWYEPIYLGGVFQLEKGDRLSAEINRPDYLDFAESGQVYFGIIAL
Chain of TLR-4 (O00206 24-839, species assumed): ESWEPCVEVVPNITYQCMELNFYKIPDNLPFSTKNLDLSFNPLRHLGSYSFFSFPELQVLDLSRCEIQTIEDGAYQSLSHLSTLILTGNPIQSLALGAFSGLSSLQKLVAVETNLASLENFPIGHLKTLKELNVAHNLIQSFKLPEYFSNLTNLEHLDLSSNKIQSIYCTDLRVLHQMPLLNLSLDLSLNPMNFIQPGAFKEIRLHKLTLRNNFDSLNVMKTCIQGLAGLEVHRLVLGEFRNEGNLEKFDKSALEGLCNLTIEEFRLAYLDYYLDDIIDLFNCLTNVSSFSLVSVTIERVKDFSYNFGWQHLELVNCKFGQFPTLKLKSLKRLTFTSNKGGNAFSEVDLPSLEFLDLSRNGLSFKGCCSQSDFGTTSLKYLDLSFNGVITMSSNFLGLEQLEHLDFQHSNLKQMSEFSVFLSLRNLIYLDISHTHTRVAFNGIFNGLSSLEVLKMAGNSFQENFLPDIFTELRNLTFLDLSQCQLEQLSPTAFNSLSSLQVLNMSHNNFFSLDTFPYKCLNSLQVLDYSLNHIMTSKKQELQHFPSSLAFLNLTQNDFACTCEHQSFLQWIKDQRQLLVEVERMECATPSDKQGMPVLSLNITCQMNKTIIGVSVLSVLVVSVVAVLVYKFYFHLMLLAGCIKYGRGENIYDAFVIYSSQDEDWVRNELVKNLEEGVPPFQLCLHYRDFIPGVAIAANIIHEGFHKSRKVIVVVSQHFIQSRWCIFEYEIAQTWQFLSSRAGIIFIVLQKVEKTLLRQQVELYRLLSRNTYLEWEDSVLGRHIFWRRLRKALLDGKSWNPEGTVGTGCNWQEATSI

CC(O)CC(=O)O (stereo not drawn) [BHB, beta-hydroxybutyric acid]
itching and erythema of skin [1]: did not redden or become itchy | flush/blush response ([1]; compared with niacin): does not activate

O=C(O)c1cccnc1 [niacin, nicotinic acid, reference compound]
itching and erythema of skin [1]: began to redden and itch

O.O.O.O.O.O.[Cl-].[Cl-].[Sr+2] [strontium chloride hexahydrate]
emulsion stability [2]: tend to be unstable and separate

O=[N+]([O-])[O-].O=[N+]([O-])[O-].[Sr+2] [strontium nitrate]
emulsion stability [2]: tend to be unstable and separate

[Sr+2] [strontium]
ability to induce CICR relative to calcium (nociceptor): over a hundred-fold less active | concentration reached in the ER, greater than calcium (nociceptor; not told): more than 150% | blocking of MMP activity (MMP): can block | suppression of burning pain and stinging (TCN [3]): ≥ 80% | pain associated with PHN [4]: can reduce or block | reducing pain and irritation [5]: can be effective | blocking of TLR-4 activity (TLR-4): can block | pain, itch, and rash/blister formation associated with HSV1 (HSV1): can reduce and or eliminate | blocking of IL-17 (IL-17): blocking | blocking of TNF-alpha (TNF-alpha): blocking | reduction of amplitude of synchronous neurotransmitter release (TCN [6]): more than 90%
